Test results reported in patent publication US20230322822A1, “ARYL PHOSPHOROUS OXIDE COMPOUNDS AND USE THEREOF” (Chengdu Di'ao Jiuhong Pharmaceutical Factory, priority 2020, published 2023).

System: NCI-H1975 EGFR DTC(C797S/T790M/Del19) cells
Assay: In vivo pharmacodynamic study, subcutaneously implanted tumor NCI-H1975 EGFR DTC(C797S/T790M/Del19) (two-sided model)
Set-up: species or system BALB/c nude mouse
Procedure: Passages were treated twice a week. When the cell number reached requirement, the cells were collected, counted and inoculated.
Administration mode and frequency: oral gavage was carried out with an administration volume of 10 mL/kg, and the model group was administered with the same volume of solvent. The administration was once per day and continuously carried out for 16 days.
General conditions such as spirit, activity, food intake and the like of the mice were observed every day, and the weight was measured thrice every week; the short diameter (a) and the long diameter (b) of each mouse tumor were measured thrice a week with a vernier caliper, and the tumor volume was calculated according to the formula (a^2×b)/2. The Relative Tumor Volume (RTV) was calculated from the measured tumor volume, wherein RTV=Vt/V0, wherein V0 was the tumor volume at random grouping (i.e., d0) and Vt was the tumor volume at each measurement (i.e., dn). The relative tumor proliferation rate of the evaluation index of the anti-tumor activity was calculated according to the following formula: relative tumor proliferation rate T/C (%): […]
Note: TRTV: treatment group RTV; CRTV model control group RTV.

[1] = 20 mg/kg oral gavage once per day
[2] = 40 mg/kg oral gavage once per day

Structure (SMILES): COc1cc(N2CCC(N3CCN(C)CC3)CC2)c(C)cc1Nc1ncc(Br)c(Nc2ccc(C)cc2P(C)(C)=O)n1 [Compound 2]
- NCI-H1975 EGFR DTC(C797S/T790M/Del19) Tumor volume Day 0 [1]: 110 mm^3
- NCI-H1975 EGFR DTC(C797S/T790M/Del19) T/C Day 2 [1]: 75.84%
- NCI-H1975 EGFR DTC(C797S/T790M/Del19) Tumor volume Day 2 [1]: 147 mm^3
- NCI-H1975 EGFR DTC(C797S/T790M/Del19) T/C Day 4 [1]: 66.68%
- NCI-H1975 EGFR DTC(C797S/T790M/Del19) Tumor volume Day 4 [1]: 235 mm^3
- NCI-H1975 EGFR DTC(C797S/T790M/Del19) T/C Day 6 [1]: 56.63%
- NCI-H1975 EGFR DTC(C797S/T790M/Del19) Tumor volume Day 6 [1]: 321 mm^3
- NCI-H1975 EGFR DTC(C797S/T790M/Del19) T/C Day 9 [1]: 43.36%
- NCI-H1975 EGFR DTC(C797S/T790M/Del19) Tumor volume Day 9 [1]: 480 mm^3
- NCI-H1975 EGFR DTC(C797S/T790M/Del19) T/C Day 11 [1]: 40.68%
- NCI-H1975 EGFR DTC(C797S/T790M/Del19) Tumor volume Day 11 [1]: 583 mm^3
- NCI-H1975 EGFR DTC(C797S/T790M/Del19) T/C Day 13 [1]: 40.09%
- NCI-H1975 EGFR DTC(C797S/T790M/Del19) Tumor volume Day 13 [1]: 720 mm^3
- NCI-H1975 EGFR DTC(C797S/T790M/Del19) T/C Day 16 [1]: 37.95%
- NCI-H1975 EGFR DTC(C797S/T790M/Del19) Tumor volume Day 16 [1]: 1065 mm^3
- NCI-H1975 EGFR DTC(C797S/T790M/Del19) Tumor volume Day 0 [2]: 113 mm^3
- NCI-H1975 EGFR DTC(C797S/T790M/Del19) T/C Day 2 [2]: 67.13%
- NCI-H1975 EGFR DTC(C797S/T790M/Del19) Tumor volume Day 2 [2]: 133 mm^3
- NCI-H1975 EGFR DTC(C797S/T790M/Del19) T/C Day 4 [2]: 50.41%
- NCI-H1975 EGFR DTC(C797S/T790M/Del19) Tumor volume Day 4 [2]: 177 mm^3
- NCI-H1975 EGFR DTC(C797S/T790M/Del19) T/C Day 6 [2]: 39.48%
- NCI-H1975 EGFR DTC(C797S/T790M/Del19) Tumor volume Day 6 [2]: 217 mm^3
- NCI-H1975 EGFR DTC(C797S/T790M/Del19) T/C Day 9 [2]: 24.87%
- NCI-H1975 EGFR DTC(C797S/T790M/Del19) Tumor volume Day 9 [2]: 269 mm^3
- NCI-H1975 EGFR DTC(C797S/T790M/Del19) T/C Day 11 [2]: 22.07%
- NCI-H1975 EGFR DTC(C797S/T790M/Del19) Tumor volume Day 11 [2]: 308 mm^3
- NCI-H1975 EGFR DTC(C797S/T790M/Del19) T/C Day 13 [2]: 18.98%
- NCI-H1975 EGFR DTC(C797S/T790M/Del19) Tumor volume Day 13 [2]: 327 mm^3
- NCI-H1975 EGFR DTC(C797S/T790M/Del19) T/C Day 16 [2]: 14.36%
- NCI-H1975 EGFR DTC(C797S/T790M/Del19) Tumor volume Day 16 [2]: 385 mm^3
